The source of these data is PubChem BioAssay AID344 (DTP/NCI, 2004).

In the experiment the test system is mice, LPC-1 plasma cell tumor ip, median survival T/C. The experiment in a line: NCI In Vivo Anticancer Drug Screen. Data for tumor model Lieberman Plasma Cell No. 1 (LPC-1) (intraperitoneal) in unknown mice. The following applies: endpoint: median survival time, higher = longer survival. As to the method: The antitumor activity of compounds was measured in mice bearing transplantable tumors. Survival or tumor size were measured and the results are expressed as the measurement made in the treated group (T) divided by the measurement made in the vehicle treated control group (C). The tumor model used in this assay is Lieberman Plasma Cell No. 1 (LPC-1) (intraperitoneal) in unknown mice

Several values for one entry are separate records, joined by “and”; a condition that tells them apart may be missing. Identical values can stand only once. Inconclusive results and toxic doses are left out.

As to `COc1cc2c(c3c1c(=O)c1ccccc1n3C)C=CC(C)(C)O2`, the T/C by setting is: (dose: 9.38 mg/kg/injection, schedule: Q03HX024 (oral), vehicle: steriod suspending solution) 118 % of control; (dose: 18.0 mg/kg/injection, schedule: Q01DX021 (sc), vehicle: other) 121 % of control; (dose: 18.0 mg/kg/injection, schedule: Q03HX008 (sc), vehicle: other) 166 % of control; (dose: 18.75 mg/kg/injection, schedule: Q03HX008 (ip), vehicle: steriod suspending solution) 103 % of control; (dose: 18.75 mg/kg/injection, schedule: Q03HX024 (oral), vehicle: steriod suspending solution) 118 % of control; (dose: 23.0 mg/kg/injection, schedule: Q01DX028 (sc), vehicle: other) 154 % of control. In addition, the T/C was 280 % of control (dose: 27.0 mg/kg/injection, schedule: Q03HX008 (sc), vehicle: other); 178 % of control (dose: 27.0 mg/kg/injection, schedule: Q03HX024 (sc), vehicle: other); 105 % of control (dose: 37.5 mg/kg/injection, schedule: Q01DX028 (oral), vehicle: other); 118 % of control (dose: 37.5 mg/kg/injection, schedule: Q03HX008 (oral), vehicle: steriod suspending solution); 109 % of control (dose: 37.5 mg/kg/injection, schedule: Q03HX024 (oral), vehicle: steriod suspending solution); 164 % of control (dose: 40.0 mg/kg/injection, schedule: Q01DX021 (sc), vehicle: other). Besides, the T/C (dose: 40.0 mg/kg/injection, schedule: Q03HX008 (sc), vehicle: other) is 180 % of control; the T/C (dose: 40.0 mg/kg/injection, schedule: Q03HX024 (sc), vehicle: other) is 204 % of control; the T/C (dose: 60.0 mg/kg/injection, schedule: Q01DX021 (sc), vehicle: other) is 173 % of control; the T/C (dose: 60.0 mg/kg/injection, schedule: Q04DX003 (sc), vehicle: other) is 152 % of control; the T/C (dose: 70.0 mg/kg/injection, schedule: Q03HX024 (sc), vehicle: steriod suspending solution) was 112 % of control; the T/C (dose: 75.0 mg/kg/injection, schedule: Q01DX001 (ip), vehicle: steriod suspending solution) is 112 % of control. For the same compound, the T/C (dose: 75.0 mg/kg/injection, schedule: Q01DX001 (oral), vehicle: steriod suspending solution) was 96 % of control; the T/C (dose: 75.0 mg/kg/injection, schedule: Q01DX028 (oral), vehicle: other) is 108 % of control; the T/C (dose: 75.0 mg/kg/injection, schedule: Q03HX008 (oral), vehicle: steriod suspending solution) was 87 % of control; the T/C (dose: 75.0 mg/kg/injection, schedule: Q03HX024 (oral), vehicle: steriod suspending solution) was 150 % of control; the T/C (dose: 90.0 mg/kg/injection, schedule: Q01DX005 (sc), vehicle: other) is 150 % of control; the T/C (dose: 99.0 mg/kg/injection, schedule: Q01DX020 (oral), vehicle: saline) is 120 % of control. Further, the T/C (dose: 100.0 mg/kg/injection, schedule: Q01DX001 (sc), vehicle: steriod suspending solution) was 100 % of control; the T/C (dose: 142.0 mg/kg/injection, schedule: Q01DX001 (sc), vehicle: steriod suspending solution) is 104 % of control; the T/C (dose: 143.0 mg/kg/injection, schedule: Q03HX008 (sc), vehicle: steriod suspending solution) is 153 % of control; the T/C (dose: 143.0 mg/kg/injection, schedule: Q03HX024 (sc), vehicle: steriod suspending solution) is 156 % of control; the T/C (dose: 145.0 mg/kg/injection, schedule: Q03HX024 (sc), vehicle: other) is 103 % of control; the T/C (dose: 150.0 mg/kg/injection, schedule: Q01DX001 (ip), vehicle: steriod suspending solution) is 100 % of control. Further, the T/C reads like this: (dose: 150.0 mg/kg/injection, schedule: Q01DX001 (oral), vehicle: steriod suspending solution) 106 % of control and 112 % of control; (dose: 150.0 mg/kg/injection, schedule: Q01DX028 (oral), vehicle: other) 100 % of control; (dose: 180.0 mg/kg/injection, schedule: Q01DX001 (sc), vehicle: other) 154 % of control; (dose: 180.0 mg/kg/injection, schedule: Q01DX005 (sc), vehicle: other) 171 % of control; (dose: 180.0 mg/kg/injection, schedule: Q04DX003 (sc), vehicle: other) 173 % of control; (dose: 204.0 mg/kg/injection, schedule: Q03HX008 (sc), vehicle: steriod suspending solution) 159 % of control. Also, the T/C (dose: 214.0 mg/kg/injection, schedule: Q01DX001 (sc), vehicle: steriod suspending solution) was 102 % of control; the T/C (dose: 214.0 mg/kg/injection, schedule: Q03HX024 (sc), vehicle: other) was 112 % of control and 121 % of control; the T/C (dose: 300.0 mg/kg/injection, schedule: Q01DX001 (oral), vehicle: steriod suspending solution) was 106 % of control; the T/C (dose: 300.0 mg/kg/injection, schedule: Q## X008 (oral), vehicle: other) was 161 % of control; the T/C (dose: 320.0 mg/kg/injection, schedule: Q01DX001 (sc), vehicle: steriod suspending solution) is 104 % of control; the T/C (dose: 320.0 mg/kg/injection, schedule: Q03HX024 (sc), vehicle: other) is 118 % of control. In addition, the T/C is 152 % of control (dose: 360.0 mg/kg/injection, schedule: Q01DX001 (sc), vehicle: other); 118 % of control (dose: 480.0 mg/kg/injection, schedule: Q01DX001 (sc), vehicle: steriod suspending solution); 116 % of control (dose: 528.0 mg/kg/injection, schedule: Q## X008 (sc), vehicle: steriod suspending solution); 112 % of control (dose: 600.0 mg/kg/injection, schedule: Q01DX001 (ip), vehicle: steriod suspending solution); 120 % of control (dose: 600.0 mg/kg/injection, schedule: Q01DX001 (oral), vehicle: steriod suspending solution); 86 % of control (dose: 600.0 mg/kg/injection, schedule: Q## X024 (oral), vehicle: steriod suspending solution). Further, the T/C reads like this: (dose: 800.0 mg/kg/injection, schedule: Q## X024 (sc), vehicle: steriod suspending solution) 166 % of control; (dose: 1136.0 mg/kg/injection, schedule: Q## X008 (sc), vehicle: steriod suspending solution) 108 % of control; (dose: 1712.0 mg/kg/injection, schedule: Q## X024 (sc), vehicle: steriod suspending solution) 160 % of control; (dose: 2560.0 mg/kg/injection, schedule: Q## X008 (sc), vehicle: steriod suspending solution) 172 % of control; (dose: 2560.0 mg/kg/injection, schedule: Q## X024 (sc), vehicle: steriod suspending solution) 118 % of control.
Regarding `CN(C)c1ccc(/C=C2\C=Cc3ccccc32)cc1`, the T/C (dose: 6.3 mg/kg/injection, schedule: Q01DX028 (sc), vehicle: carboxymethylcellulose (CMC)) is 102 % of control; the T/C (dose: 12.5 mg/kg/injection, schedule: Q01DX028 (sc), vehicle: carboxymethylcellulose (CMC)) is 102 % of control; the T/C (dose: 25.0 mg/kg/injection, schedule: Q01DX028 (sc), vehicle: carboxymethylcellulose (CMC)) is 102 % of control; the T/C (dose: 50.0 mg/kg/injection, schedule: Q01DX028 (sc), vehicle: carboxymethylcellulose (CMC)) was 97 % of control; the T/C (dose: 100.0 mg/kg/injection, schedule: Q01DX028 (sc), vehicle: carboxymethylcellulose (CMC)) is 94 % of control.
As to `NC(CSCc1ccc(N(CCCl)CCCl)cc1)C(=O)O` (configuration not stated), the T/C is 100 % of control (dose: 3.75 mg/kg/injection, schedule: Q01DX028 (sc), vehicle: saline); 111 % of control (dose: 7.5 mg/kg/injection, schedule: Q01DX028 (sc), vehicle: saline); 102 % of control (dose: 15.0 mg/kg/injection, schedule: Q01DX028 (sc), vehicle: saline); 122 % of control (dose: 30.0 mg/kg/injection, schedule: Q01DX028 (sc), vehicle: saline).
